In patent US20230113037A1 (Bayer Aktiengesellschaft, priority 2019, published 2023):
pIC50: −log10 of the molar value. Like-named read-outs stand apart in the source and are kept apart here.

Assays:
[1] = target: T1, AHR (Homo sapiens, UniProt P35869); assay: In vitro assay 1: antagonism in human cell line (AHR transactivation, firefly luciferase reporter, kynurenic acid prestimulated); format: cell-based; details: AHR Antagonism Human IC50 [M], firefly luciferase reporter
T1 construct: U87 MG glioblastoma cells (ATCC #HTB-14) endogenously expressing AHR; endogenous in cells; host or cells: U87 MG glioblastoma cells (ATCC #HTB-14)
T1 sequence (P35869 11-848): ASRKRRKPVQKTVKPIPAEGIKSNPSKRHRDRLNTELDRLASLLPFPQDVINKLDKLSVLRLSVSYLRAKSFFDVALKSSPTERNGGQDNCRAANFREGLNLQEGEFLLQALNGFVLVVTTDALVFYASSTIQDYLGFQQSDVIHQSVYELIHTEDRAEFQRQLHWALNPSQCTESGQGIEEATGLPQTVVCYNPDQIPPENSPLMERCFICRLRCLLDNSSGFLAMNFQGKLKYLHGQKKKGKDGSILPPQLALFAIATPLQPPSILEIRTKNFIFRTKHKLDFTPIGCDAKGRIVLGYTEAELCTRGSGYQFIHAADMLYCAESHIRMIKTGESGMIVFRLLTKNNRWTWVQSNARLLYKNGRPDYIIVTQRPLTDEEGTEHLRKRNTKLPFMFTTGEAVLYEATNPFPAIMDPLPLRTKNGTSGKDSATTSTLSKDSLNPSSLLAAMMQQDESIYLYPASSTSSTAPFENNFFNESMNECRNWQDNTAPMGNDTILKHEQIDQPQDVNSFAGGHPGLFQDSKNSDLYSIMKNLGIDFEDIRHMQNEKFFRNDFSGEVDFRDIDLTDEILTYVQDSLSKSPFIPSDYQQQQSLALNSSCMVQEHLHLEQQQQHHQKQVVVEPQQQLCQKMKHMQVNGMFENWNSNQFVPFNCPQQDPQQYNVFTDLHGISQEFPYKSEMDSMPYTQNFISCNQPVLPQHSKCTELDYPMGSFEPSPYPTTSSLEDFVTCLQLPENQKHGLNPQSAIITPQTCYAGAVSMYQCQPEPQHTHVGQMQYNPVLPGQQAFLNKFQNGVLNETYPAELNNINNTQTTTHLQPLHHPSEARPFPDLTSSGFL
How it was run: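 U87 MG + DRE-firefly/constitutive-Renilla stable reporters; kynurenic acid prestim; dual-luc read; Renilla = tox; normalized vs pos/neg controls (pos: 150 μM KYNA + 5 μM staurosporine).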

[2] = target: T2, AHR (Mus musculus, UniProt P30561); assay: In vitro assay 3: antagonism in mouse cell line (AHR transactivation, firefly luciferase reporter, kynurenic acid prestimulated); format: cell-based
T2 sequence (P30561 1-848 P471L/N533S/M589L): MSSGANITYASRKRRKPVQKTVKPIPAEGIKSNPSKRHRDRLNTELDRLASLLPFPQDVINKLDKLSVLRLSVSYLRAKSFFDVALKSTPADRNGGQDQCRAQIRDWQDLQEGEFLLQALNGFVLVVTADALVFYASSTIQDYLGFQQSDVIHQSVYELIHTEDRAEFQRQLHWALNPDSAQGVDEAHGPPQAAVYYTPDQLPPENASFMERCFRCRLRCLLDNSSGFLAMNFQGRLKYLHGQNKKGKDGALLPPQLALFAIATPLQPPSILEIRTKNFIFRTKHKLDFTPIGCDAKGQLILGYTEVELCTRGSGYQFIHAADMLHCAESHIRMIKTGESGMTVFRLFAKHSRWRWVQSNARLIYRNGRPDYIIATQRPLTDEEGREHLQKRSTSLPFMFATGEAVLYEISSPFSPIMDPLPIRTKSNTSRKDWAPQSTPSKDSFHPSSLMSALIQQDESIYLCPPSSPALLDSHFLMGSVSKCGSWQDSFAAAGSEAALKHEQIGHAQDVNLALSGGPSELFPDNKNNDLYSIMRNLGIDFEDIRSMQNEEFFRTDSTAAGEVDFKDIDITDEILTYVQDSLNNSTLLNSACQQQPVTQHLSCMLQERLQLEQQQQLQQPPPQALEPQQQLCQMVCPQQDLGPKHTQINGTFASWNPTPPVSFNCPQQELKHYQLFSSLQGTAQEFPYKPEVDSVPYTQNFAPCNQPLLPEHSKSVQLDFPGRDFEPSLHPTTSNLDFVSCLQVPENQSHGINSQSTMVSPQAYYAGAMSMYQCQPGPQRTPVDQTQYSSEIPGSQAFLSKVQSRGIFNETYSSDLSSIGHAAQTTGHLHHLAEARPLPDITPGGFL
How it was run: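 Mouse cells stably carrying a DRE-driven AHR-inducible firefly luciferase reporter were prestimulated with the endogenous agonist kynurenic acid before compound addition. Luciferase read by SteadyGlo; cells without kynurenic acid served as full-inhibition control, with normalization to positive and negative controls. Repeat tests reported as mean or median.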

[3] = Hepa 1c1c7 cells, 200 μM kynurenic acid, 20 hours, firefly luciferase reporter, read-out: AHR Antagonism Mouse IC50
[4] = read-out: AHR Antagonism Mouse IC50, Hepa 1c1c7 cells, 200 μM kynurenic acid, 20 hours, firefly luciferase reporter

IC50 [1] [M]	pIC50 [2, 3]	Structure (SMILES)	pIC50 [2, 4]
2.3e-08	7.71	C[C@@H]1CN(C(=O)[C@@H](C)Nc2nc3c(Br)cccc3c3nc(-c4cnn(C)c4)nn23)CCO1 [Example 906, (2R)-2-{[7-bromo-2-(1-methyl-1H-pyrazol-4-yl)[1,2,4]triazolo[1,5-c]quinazolin-5-yl]amino}-1-[(2R)-2-methylmorpholin-4-yl]propan-1-one]	–
9.93e-10	8.86	COc1ccc(-c2nc3c4cccc(Br)c4nc(N[C@H](C)C(=O)N4CCO[C@H](C)C4)n3n2)cc1 [Example 907, (2R)-2-{[7-bromo-2-(4-methoxyphenyl)[1,2,4]triazolo[1,5-c]quinazolin-5-yl]amino}-1-[(2R)-2-methylmorpholin-4-yl]propan-1-one]	–
2.87e-08	7.73	C[C@H]1CN(C(=O)[C@@H](C)Nc2nc3c(Br)cccc3c3nc(-c4cnn(C)c4)nn23)CCO1 [Example 908, (2R)-2-{[7-bromo-2-(1-methyl-1H-pyrazol-4-yl)[1,2,4]triazolo[1,5-c]quinazolin-5-yl]amino}-1-[(2S)-2-methylmorpholin-4-yl]propan-1-one]	–
2.36e-09	8.77	COc1ccc(-c2nc3c4cccc(Br)c4nc(N[C@H](C)C(=O)N4CCO[C@@H](C)C4)n3n2)cc1 [Example 909, (2R)-2-{[7-bromo-2-(4-methoxyphenyl)[1,2,4]triazolo[1,5-c]quinazolin-5-yl]amino}-1-[(2S)-2-methylmorpholin-4-yl]propan-1-one]	–
2.4e-08	7.61	C[C@@H]1CN(C(=O)[C@@H](C)Nc2nc3c(Br)cccc3c3nc(-c4cnn(C)c4)nn23)CCN1C [Example 910, (2R)-2-{[7-bromo-2-(1-methyl-1H-pyrazol-4-yl)[1,2,4]triazolo[1,5-c]quinazolin-5-yl]amino}-1-[(3R)-3,4-dimethylpiperazin-1-yl]propan-1-one]	–
2.16e-08	7.86	C[C@@H]1COCCN1C(=O)[C@@H](C)Nc1nc2c(Br)cccc2c2nc(-c3cnn(C)c3)nn12 [Example 912, (2R)-2-{[7-bromo-2-(1-methyl-1H-pyrazol-4-yl)[1,2,4]triazolo[1,5-c]quinazolin-5-yl]amino}-1-[(3R)-3-methylmorpholin-4-yl]propan-1-one]	–
1.32e-09	8.77	COc1ccc(-c2nc3c4cccc(Br)c4nc(N[C@H](C)C(=O)N4CCN(C)[C@H](C)C4)n3n2)cc1 [Example 913, (2R)-2-{[7-bromo-2-(4-methoxyphenyl)[1,2,4]triazolo[1,5-c]quinazolin-5-yl]amino}-1-[(3R)-3,4-dimethylpiperazin-1-yl]propan-1-one]	–
8.96e-10	8.87	COc1ccc(-c2nc3c4cccc(Br)c4nc(N[C@H](C)C(=O)N4C[C@@H]5C[C@H]4CO5)n3n2)cc1 [Example 914, (2R)-2-{[7-bromo-2-(4-methoxyphenyl)[1,2,4]triazolo[1,5-c]quinazolin-5-yl]amino}-1-[(1S,4S)-2-oxa-5-azabicyclo[2.2.1]heptan-5-yl]propan-1-one]	–
1.74e-08	7.73	C[C@@H](Nc1nc2c(Br)cccc2c2nc(-c3cnn(C)c3)nn12)C(=O)N1C[C@@H]2C[C@H]1CO2 [Example 915, (2R)-2-{[7-bromo-2-(1-methyl-1H-pyrazol-4-yl)[1,2,4]triaozlo[1,5-c]quinazolin-5-yl]amino}-1-[(1S,4S)-2-oxa-5-azabicyclo[2.2.1]heptna-5-yl]propan-1-one]	–
3.07e-08	7.50	COc1ccc(-c2nc3c4cccc(Br)c4nc(N[C@H](C)C(=O)N4CC5(CN(C)C5)C4)n3n2)cc1 [Example 918, (2R)-2-{[7-bromo-2-(4-methoxyphenyl)[1,2,4]triazolo[1,5-c]quinazolin-5-yl]amino}-1-(6-methyl-2,6-diazaspiro[3.3]heptan-2-yl)propan-1-one]	–
1.18e-06	6.21	C[C@@H](Nc1nc2c(Br)cccc2c2nc(-c3cnn(C)c3)nn12)C(=O)N1CC2(CN(C)C2)C1 [Example 919, (2R)-2-{[7-bromo-2-(1-methyl-1H-pyrazol-4-yl)[1,2,4]triazolo[1,5-c]quinazolin-5-yl]amino}-1-(6-methyl-2,6-diazaspiro[3.3]heptan-2-yl)propan-1-one]	–
7.45e-09	7.96	COc1ccc(-c2nc3c4cccc(Br)c4nc(N[C@H](C)C(=O)N4CC5(CN(C(=O)OC(C)(C)C)C5)C4)n3n2)cc1 [Example 920, tert-butyl 6-{N-[7-bromo-2-(4-methoxyphenyl)[1,2,4]triazolo[1,5-c]quinazolin-5-yl]-D-alanyl}-2,6-diazaspiro[3.3]heptane-2-carboxylate]	–
4.24e-08	7.01	C[C@@H](Nc1nc2c(Br)cccc2c2nc(-c3cnn(C)c3)nn12)C(=O)N1CC2(CN(C(=O)OC(C)(C)C)C2)C1 [Example 921, tert-butyl 6-{N-[7-bromo-2-(1-methyl-1H-pyrazol-4-yl)[1,2,4]triazolo[1,5-c]quinazolin-5-yl]-D-alanyl}-2,6-diazaspiro[3.3]heptane-2-carboxylate]	–
2.47e-09	8.69	COc1ccc(-c2nc3c4cccc(Br)c4nc(N[C@@H](C(=O)N4CCN(C)CC4)C(C)C)n3n2)cc1 [Example 922, (2R)-2-{[7-bromo-2-(4-methoxyphenyl)[1,2,4]triazolo[1,5-c]quinazolin-5-yl]amino}-3-methyl-1-(4-methylpiperazin-1-yl)butan-1-one]	–
3.26e-09	8.67	COCCNC(=O)[C@H](Nc1nc2c(Br)cccc2c2nc(-c3ccc(OC)cc3)nn12)C(C)C [Example 923, N^2-[7-bromo-2-(4-methoxyphenyl)[1,2,4]triazolo[1,5-c]quinazolin-5-yl]-N-(2-methoxyethyl)-D-valinamide]	–

Structure (SMILES)	IC50 [1] [M]	pIC50 [2, 3]	pIC50 [2, 4]
COc1ccc(-c2nc3c4cccc(Br)c4nc(N[C@H](C)C(=O)N4CCOC[C@H]4C)n3n2)cc1 [Example 911, (2R)-2-{[7-bromo-2-(4-methoxyphenyl)[1,2,4]triazolo[1,5-c]quinazolin-5-yl]amino}-1-[(3R)-3-methylmorpholin-4-yl]propan-1-one]	1.57e-09	–	8.70
COc1ccc(-c2nc3c4cccc(Br)c4nc(N[C@H](C)C(=O)N4CC5(COC5)C4)n3n2)cc1 [Example 916, (2R)-2-{[7-bromo-2-(4-methoxyphenyl)[1,2,4]triazolo[1,5-c]quinazolin-5-yl]amino}-1-(2-oxa-6-azaspiro[3.3]heptan-6-yl)propan-1-one]	1.06e-09	–	8.65
C[C@@H](Nc1nc2c(Br)cccc2c2nc(-c3cnn(C)c3)nn12)C(=O)N1CC2(COC2)C1 [Example 917, (2R)-2-{[7-bromo-2-(1-methyl-1H-pyrazol-4-yl)[1,2,4]triazolo[1,5-c]quinazolin-5-yl]amino}-1-(2-oxa-6-azaspiro[3.3]heptan-6-yl)propan-1-one]	3.76e-08	–	7.18
